{"source": "patent US9474730B2", "about": "“Methods and compositions for use with K-ras mediated disorders” (Board of Regents of the University of Texas System, priority 2012, dated 2016)", "key": {"[1]": {"molecular_target": "T1, GFP-CTH (mGFP-tagged C-terminal region of H-ras) in MDCK cells (Homo sapiens, UniProt P01112)", "T1 construct": "hypervariable region of H-ras (amino acids 166-189) cloned onto the carboxy terminus of monomeric GFP; expressed in transfected cells", "T1 sequence (P01112 166-189 limits assumed)": "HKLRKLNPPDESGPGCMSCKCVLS", "experiment": "High throughput cell-based screen: plasma membrane localization of GFP-CTH", "parameters": "species or system canine", "conditions": "positive control"}, "[2]": {"molecular_target": "T2, GFP-K-rasG12V in MDCK or BHK cells (Homo sapiens, UniProt P01116, G12V)", "T2 construct": "MDCK and BHK cells expressing GFP-tagged full length constitutively active Ras (G12V) proteins; expressed in transfected cells", "experiment": "Cellular fractionation (P100/S100) with quantitative Western blotting, GFP-K-rasG12V", "assay_type": "cell-based, canine (MDCK), hamster (BHK)", "conditions": "48 hours", "protocol": "Following treatment, membrane (P100) and soluble (S100) protein fractions were prepared and analyzed by quantitative Western blotting.\n(§1) Preparation of whole-cell lysates: cells were lysed in Buffer B (50 mM Tris [pH 7.5], 75 mM NaCl, 25 mM NaF, 5 mM MgCl2, 5 mM EGTA, 1 mM dithiothreitol, 100 μM NaVO4, 1% Nonidet P-40 plus protease inhibitors). Cellular fractionation: cells were incubated in Buffer A (10 mm Tris-HCl, pH 7.5, 25 mm NaF, 5 mm MgCl2, 1 mm EGTA, 1 mm dithiothreitol, 100 μm NaVO4 plus protease inhibitors) for 30 minutes on ice and lysed by passing through a 27 G needle 30 times. The post nuclear supernatant was centrifuged at 100,000 g for 30 minutes and the membrane pellet was resuspended in Buffer A containing 1% Triton X-100.\n(§2) SDS-PAGE and Western blotting with the specified antibody were performed using 20 μg of each whole cell lysate/P100 fraction and volumes of S100 equal to that of the corresponding P100. Signal was detected by enhanced chemiluminescence (SuperSignal; Pierce, Thermo Fisher Scientific, Rockford, Ill.) and imaged by FluorChemQ (Alpha Inotech, San Leandro, Calif., USA). Quantification of intensities was performed using FluorChemQ software."}, "[3]": {"system": "BHK cells stably expressing K-rasG12V", "experiment": "Signaling downstream of oncogenic K-ras by quantitative Western blotting", "assay_type": "cell-based, hamster", "conditions": "other Ca2+ channel blockers and ionomycin", "protocol": "FIG. 5: Illustrates that fendiline HCl inhibits Raf kinase activity and signaling downstream of oncogenic K-ras: BHK cells stably expressing K-rasG12V were treated with vehicle or fendiline HCl (6 μg/mL) for 48 h. (A) Raf kinase activity in membrane fractions prepared from the cells was measured in a coupled […] kinase assay. Data is shown as mean±SEM from 3 independent experiments. (B) ppMEK and ppERK in soluble protein fraction and pAkt levels in membrane protein fraction were measured by quantitative Western blotting. Actin and Akt were used as loading controls for soluble and membrane fractions, respectively. A representative blots are shown. Data is shown as mean±SEM from 3-4 independent experiments. Statistical significance was calculated using one way ANOVA and Student's T-test. (*=p<0.05), wherein experimentation was performed in accordance with principles described herein;\nas §1\nQuantification of intensities was performed using FluorChemQ software."}, "[4]": {"molecular_target": "T3, GFP-CTK (mGFP-tagged C-terminal region of K-ras) in MDCK cells (Homo sapiens, UniProt P01116)", "T3 construct": "hypervariable region of K-ras (amino acids 166-188) cloned onto the carboxy terminus of GFP; expressed in transfected cells", "experiment": "High throughput cell-based screen: plasma membrane localization of GFP-CTK", "parameters": "species or system canine", "conditions": "positive control, 250 ng/mL UCN-01, MDCK", "protocol": "FIG. 1: Illustrates results of a high throughput cell-based screening of chemical libraries: Madin-Darby Canine Kidney epithelial cells (MDCK) expressing monomeric green fluorescent protein (mGFP)-tagged C-terminal region of K- or H-ras (GFP-CTK and GFP-CTH) were seeded in 96 well plates and treated with drug libraries for 48 h. Cells were then fixed with paraformaldehyde and imaged by BD Pathway Imager in confocal mode; shown are representative images of cells treated with vehicle, […], and 10 μM FTI-276; wherein experimentation was performed in accordance with principles described herein;\nIn accordance with some embodiments described herein, wild type MDCK cells or MDCK cells expressing monomeric green fluorescent protein (mGFP)-tagged C-terminal region of K-ras or H-ras (GFP-CTK and GFP-CTH respectively) were seeded in triplicate in 96 well plates (Matrical) at a density of 30,000 cells/well and incubated for 24 h at 37° C. Compounds were individually added to test cells at a concentration of 4 μg/mL (concentration of DMSO 1%) and incubated for a further 48 h.\nCells were then fixed with 4% paraformaldehyde and stored in PBS at 4° C. until imaged. Plates were imaged using a BD Pathway High-Throughput Bioimager. Images were acquired by a 3×3 montage with 20× objective lens using GFP-confocal mode. […]"}, "[5]": {"system": "tumor cell lines expressing oncogenic mutant or wild-type K-Ras", "experiment": "Proliferation assay (MTS), panel of pancreatic, endometrial, lung and colon tumor cell lines", "assay_type": "cell-based", "conditions": "72 h, various concentrations", "protocol": "(§3) (A) A panel of wild-type (WT) or oncogenic mutant (Mut) K-Ras-expressing tumor cells were seeded in 96-well plates and treated for 72 h with vehicle (DMSO) or various concentrations of fendiline. […] The graphs show relative mean numbers of viable cells±SEMs from 3 independent experiments. Cell lines expressing oncogenic mutant K-Ras are shown in red, and cell lines that express wild-type K-Ras are shown in black. NCI H1299 cells (shown in blue) express wild-type K-Ras but mutant N-Ras. CaCO-2 cells (shown in green) overexpress wild-type K-Ras. (B) K-Ras levels in whole-cell lysates of SNU-C1, CaCO-2, and SK-CO-1 cells were quantified by Western blotting. The graphs show means±SEMs for 3 isolates of each cell line (indicated as 1, 2, and 3). K-Ras expression was normalized to the SNU-C1 sample.\n(§4) After 24 h, fresh growth medium supplemented with 1% vehicle (DMSO), various concentrations of fendiline, or U0126 was added and cells were grown for 48 h or 72 h."}, "[6]": {"system": "CaCO-2 colon cancer cell line", "experiment": "Proliferation assay (MTS), CaCO-2", "assay_type": "cell-based", "conditions": "72 h; wild type K-Ras, overexpressed", "protocol": "as §3, §4"}, "SNU-C1 cells": {"system": "SNU-C1 cells", "experiment": "Proliferation assay (MTS), SNU-C1", "assay_type": "cell-based", "conditions": "72 h; wild type K-Ras", "protocol": "as §3, §4"}, "[7]": {"system": "K-Ras-transformed Hec1A cells", "experiment": "Proliferation assay (MTS), Hec-1a, fendiline versus U0126", "conditions": "48 h, single dose of fendiline, U0126 renewed every 24 h", "experimental": "The number of viable cells was quantified (absorbance at 490 nm) using the CellTiter 96 AQueous One Solution cell proliferation assay kit (Promega). […] Cell numbers were normalized to the corresponding vehicle-treated control. Statistical significance was calculated using Student's t test (*, P<0.05). […] Cell numbers were quantified using the CellTiter 96 AQueous One Solution cell proliferation assay (MTS) (Promega), according to the manufacturer's protocol."}, "[8]": {"system": "MAPK activation (pERK) in Hec1A cells", "conditions": "48 h", "protocol": "as §2"}}}
{"smiles": "CSCC[C@H](NC(=O)c1ccc(NC[C@@H](N)CS)cc1-c1ccccc1)C(=O)O", "note": "[FTI-276]", "values": [{"measurement": "localization of GFP-CTH", "setting": "[1]; 10 μM FTI-276, MDCK", "result": "causes cytoplasmic localization of GFP-CTH"}]}
{"smiles": "C[C@H](CCC(=O)O)C[C@H](C)C[C@H](C)C(=O)/C=C(\\O)[C@H](C)C[C@H](C)C/C=C/[C@@H](C)[C@@H](O)[C@@H](C)[C@@H](O)C[C@@H]1CC[C@@](C)([C@H]2CC[C@@](C)([C@@H](C)O)O2)O1", "note": "[Ionomycin, ionomycin]", "values": [{"measurement": "localization of Ras proteins (fractionation)", "setting": "[2]; ionomycin 1 μM, GFP-K-rasG12V or GFP-H-rasG12V", "result": "did not significantly alter the localization of Ras proteins"}, {"measurement": "effect on Ras signaling", "setting": "[3]", "result": "None of the other Ca^2+ channel blockers tested or ionomycin had any effect on Ras signaling"}]}
{"smiles": "CN[C@@H]1C[C@H]2O[C@@](C)([C@@H]1OC)n1c3ccccc3c3c4c(c5c6ccccc6n2c5c31)C(=O)N[C@@H]4O", "note": "[UCN-01]", "values": [{"measurement": "localization of GFP-CTK", "setting": "[4]", "result": "causes mislocalization of both GFP-CTK and GFP-CTH"}, {"measurement": "localization of GFP-CTH", "setting": "[1]; 250 ng/mL UCN-01, MDCK", "result": "causes mislocalization of both GFP-CTK and GFP-CTH"}]}
{"smiles": "CC(NCCC(c1ccccc1)c1ccccc1)c1ccccc1", "note": "(centres unmarked) [fendiline, 3,3-diphenyl-N-(1-phenylethyl)propan-1-amine]", "values": [{"measurement": "inhibition of proliferation, oncogenic mutant versus wild-type K-Ras tumor cells", "setting": "[5]", "result": "more potently inhibited the proliferation of tumor cells that express oncogenic mutant K-Ras than tumor cells that express wild-type K-Ras"}, {"measurement": "inhibition of proliferation of CaCO-2", "setting": "[6]", "result": "potently inhibited"}, {"measurement": "inhibition of proliferation of SNU-C1", "setting": "SNU-C1 cells", "result": "unresponsive"}, {"measurement": "inhibition of cell proliferation, relative potency", "setting": "[7]", "result": "significantly more potent than U0126"}]}
{"smiles": "N#CC(=C(/N)Sc1ccccc1N)/C(C#N)=C(\\N)Sc1ccccc1N", "note": "[U0126]", "values": [{"measurement": "inhibition of MAPK activation (pERK levels), relative potency", "setting": "[8]", "result": "much more potent than fendiline"}]}
{"smiles": "COc1ccc([C@@H]2Sc3ccccc3N(CCN(C)C)C(=O)[C@@H]2OC(C)=O)cc1", "note": "[diltiazem]", "values": [{"measurement": "localization of GFP-K-rasG12V (fractionation)", "setting": "[2]; other Ca2+ channel blockers, 10 μM", "result": "None of the other Ca^2+ channel blockers altered the localization of GFP-K-rasG12V"}]}
